Broadly, the inhibition is the change of the read-out against control, counted positive when it falls.

Structures are written as SMILES. Residues, ends and D or L forms follow the SMILES beside them.

This experiment deals with Human immunodeficiency virus type 1 protease (Human immunodeficiency virus 1) (UniProt Q72874). Briefly: Inhibitory activity against HIV-1 protease at 100 uM.
Regarding `CC[C@H](C)[C@H](NC(=O)[C@H](CCC(N)=O)NC(=O)[C@@H]1CCCN1C(C)=O)C(=O)N[C@H](C(=O)N[C@@H](CC(C)C)C(=O)O)[C@@H](C)O` (Ac-PQITL-OH), the inhibition is -1.4%.

`CC[C@H](C)[C@H](NC(C)=O)C(=O)NCC(=O)N[C@@H](CO)C(=O)N[C@H](C(=O)N[C@@H](CC(C)C)C(=O)N[C@@H](CC(N)=O)C(=O)N[C@@H](Cc1ccccc1)C(=O)O)[C@@H](C)O` (Ac-IGSTLNF-OH): the inhibition stood at 12.6%.

Take `CC[C@H](C)[C@H](NC(=O)[C@H](CCC(N)=O)NC(=O)[C@@H]1CCCN1C(C)=O)C(=O)N[C@H](C(=O)N[C@@H](CC(C)C)C(=O)N[C@@H](Cc1c[nH]c2ccccc12)C(=O)O)[C@@H](C)O` (Ac-PQITLW-OH): the inhibition turned out to be 28.1%.

`CC[C@H](C)[C@H](NC(=O)[C@H](CCC(N)=O)NC(=O)[C@@H]1CCCN1)C(=O)N[C@H](C(=O)N[C@@H](CC(C)C)C(=O)N[C@@H](Cc1c[nH]c2ccccc12)C(=O)N[C@@H](CCC(N)=O)C(=O)O)[C@@H](C)O` (H-PQITLWQ-OH): the inhibition was 1.3%.

On to `CC(=O)N[C@H](C(=O)N[C@@H](CC(C)C)C(=O)N[C@@H](CC(N)=O)C(=O)N[C@@H](Cc1ccccc1)C(=O)O)[C@@H](C)O` (Ac-TLNF-OH), for which the inhibition turned out to be 3.9%.

Regarding `CC[C@H](C)[C@H](NC(=O)[C@H](CCC(N)=O)NC(C)=O)C(=O)NCC(=O)N[C@@H](CO)C(=O)N[C@H](C(=O)N[C@@H](CC(C)C)C(=O)N[C@@H](CC(N)=O)C(=O)N[C@@H](Cc1ccccc1)C(=O)O)[C@@H](C)O` (Ac-QIGSTLNF-OH), the inhibition worked out at 34.6%.

Consider `CC[C@H](C)[C@H](NC(=O)[C@H](CCC(N)=O)NC(=O)[C@@H]1CCCN1)C(=O)N[C@H](C(=O)N[C@@H](CC(C)C)C(=O)O)[C@@H](C)O` (H-PQITL-OH), for which the inhibition worked out at 5.6%.

On to `CC[C@H](C)[C@H](NC(=O)[C@H](CCC(N)=O)NC(=O)[C@@H]1CCCN1C(C)=O)C(=O)N[C@H](C(=O)N[C@@H](CC(C)C)C(=O)N[C@@H](Cc1c[nH]c2ccccc12)C(=O)N[C@@H](CCC(N)=O)C(=O)O)[C@@H](C)O` (Ac-PQITLWQ-OH), for which the inhibition was 26%.

Take `CC[C@H](C)[C@H](NC(=O)[C@H](CCC(N)=O)NC(=O)[C@@H]1CCCN1)C(=O)N[C@H](C(=O)N[C@@H](CC(C)C)C(=O)N[C@@H](Cc1c[nH]c2ccccc12)C(=O)O)[C@@H](C)O` (H-PQITLW-OH): the inhibition stood at 39.9%.

On to `CC(=O)N[C@@H](CO)C(=O)N[C@H](C(=O)N[C@@H](CC(C)C)C(=O)N[C@@H](CC(N)=O)C(=O)N[C@@H](Cc1ccccc1)C(=O)O)[C@@H](C)O` (Ac-STLNF-OH), for which the inhibition stood at 37.2%.

`CC(=O)NCC(=O)N[C@@H](CO)C(=O)N[C@H](C(=O)N[C@@H](CC(C)C)C(=O)N[C@@H](CC(N)=O)C(=O)N[C@@H](Cc1ccccc1)C(=O)O)[C@@H](C)O` (Ac-GSTLNF-OH): the inhibition was determined as 4.6%.
